These results are taken from patent US20240165082A1, “ORALLY ADMINISTERED COMPOSITIONS FOR CANCER TREATMENT” (priority 2021, published 2024).

Each structure is given as a SMILES string.

For data set [1] the following is noted: oral administration; inferred from Papp of Example 12. An excerpt:
Previous studies of the drug permeability data in Caco-2 cells for predicting human drug absorption data plotted apparent permeability (Papp) values against the drug fraction absorbed in humans expressed as a percentage of the administered dose (FA). […] (Turco, et al. Toxicology in Vitro, 2010, 13-20).

The nature of the next data set: in vitro. The settings on record: human, pH 7.4.

Experimental for in vitro: Phosphate-buffered saline (PBS, Cat. #10010 from ThermoFisher Scientific, Waltham, MA, USA) was adjusted to pH 7.4 and used as the receiver buffer. […] Tissues were received and stored at 4° C. until use. The tissue inserts were transferred to plates containing MATTEK SMI-100 culture medium using sterile technique and placed in a humidified incubator (37±1° C., 5% CO2) overnight for recovery prior to use, according to MATTEK protocols.
The control was PBS, pH 7.4 buffer for baseline endogenous histamine. Reference B was histamine α,α,β,β-d4 dihydrochloride (1 mg/mL) in PBS, pH 7.4. Reference A was a 300 μL dose added to the apical side of the tissue. […] In each trial, a 100 μL sample was immediately collected as the 0-minute donor sample and was not replenished. The pharmaceutical composition, the control, and Reference B were dosed with 200 μL, and 10 μL donor samples and collected at each time point (0, 15, 30, 60, and 120 minutes) without replacement. Six replicates of each treatment were conducted. […] The assay plates were transferred to a humidified incubator (37±1° C., 5% CO2) between sampling time points. […] Upon completion of the study, all samples were stored at −80° C. until analysis by LC-MS/MS. […]
The cumulative receiver concentration of each compound at each time point (Cc) was calculated as the sum of the measured concentration at that time point (Cm) and 0.2/5 of the measured concentrations at the previous time points (a 0.2 mL receiver sample out of the 5 mL total receiver volume was withdrawn and replaced at each time point, except for the final time point which was not replaced).
The Papp for each compound was calculated as follows: Papp=(dCr/dt)×Vr/(A×Cn), where dCr/dt is the slope of the cumulative receiver concentration (in μM) vs. time (t); Vr is the volume of the receiver compartment (5 cm^3); A is the exposed surface area for permeation (0.6 cm^2); and Cn is the nominal concentration in the donor compartment (in μM).
The recovery (%) at the final timepoint for histamine was calculated as follows: Recovery=100×((Vr120×Cr^final)+(Vd^initial×Cd^initial)+(Vd^15×Cd^15)+(Vd^30×Cd^30)+(Vd^60×Cd^60)+(Vd^final×Cd^final))/(Vd×Cn).
The flux was calculated using the following equation: Flux(overall)=dCc/dt×Vr/A; where dCc/dt is the slope of the cumulative receiver concentration (in μM) vs. time (t); Vr is the volume of the receiver compartment (in cm^3); t is the duration of the flux period in the linear range (in minutes); and A is the diffusional surface area of the exposed tissue surface (0.6 cm^2).

As to `Cl.Cl.NCCc1c[nH]cn1` [histamine dihydrochloride], in data set [1], the “absorbed in the small intestine, amount of the administered dosage” value is listed as “greater than 85%”. In “in vitro”, the Papp A→B at 120 min stood at 18.7 ± 1.5 ×10⁻⁶ cm/s; the Papp A→B at 120 min, 89969 μM turned out to be 18.7 ± 1.5 ×10⁻⁶ cm/s; the recovery at 120 min worked out at 93.6%.
Compound `CC(C)NCC(O)COc1ccc(CC(N)=O)cc1` (centres unmarked) [atenolol] had a recovery at 120 min in the data set “in vitro” of 89.1 ± 5.2%.

The term Papp A→B denotes how fast a substance crosses the layer from the apical side. Low values mean slow passage, high ones fast passage.
